In ChEMBL document CHEMBL5291721, “A preclinical secondary pharmacology resource illuminates target-adverse drug reaction associations of marketed drugs” (Nat Commun, 2023):

Key:
Acetylcholinesterase = Acetylcholinesterase (Homo sapiens, UniProt P22303); assay type: functional
[1] = target: T1, Alpha-2A adrenergic receptor (Homo sapiens, UniProt P08913)
T1 sequence (P08913 whole entry): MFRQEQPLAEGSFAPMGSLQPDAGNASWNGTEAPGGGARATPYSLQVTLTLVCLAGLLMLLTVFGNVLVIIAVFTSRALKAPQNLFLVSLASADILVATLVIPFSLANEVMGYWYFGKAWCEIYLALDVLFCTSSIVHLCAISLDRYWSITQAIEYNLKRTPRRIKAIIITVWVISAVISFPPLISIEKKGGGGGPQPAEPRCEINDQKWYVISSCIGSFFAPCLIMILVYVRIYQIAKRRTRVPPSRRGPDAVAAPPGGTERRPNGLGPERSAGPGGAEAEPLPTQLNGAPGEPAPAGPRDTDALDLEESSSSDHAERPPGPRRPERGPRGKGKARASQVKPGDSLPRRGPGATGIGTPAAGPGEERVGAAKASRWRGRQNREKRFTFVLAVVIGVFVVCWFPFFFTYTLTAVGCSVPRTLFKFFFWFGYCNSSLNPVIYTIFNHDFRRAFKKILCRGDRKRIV

[2] = target: T2, Muscarinic acetylcholine receptor M2 (Homo sapiens, UniProt P08172)
T2 sequence (P08172 whole entry): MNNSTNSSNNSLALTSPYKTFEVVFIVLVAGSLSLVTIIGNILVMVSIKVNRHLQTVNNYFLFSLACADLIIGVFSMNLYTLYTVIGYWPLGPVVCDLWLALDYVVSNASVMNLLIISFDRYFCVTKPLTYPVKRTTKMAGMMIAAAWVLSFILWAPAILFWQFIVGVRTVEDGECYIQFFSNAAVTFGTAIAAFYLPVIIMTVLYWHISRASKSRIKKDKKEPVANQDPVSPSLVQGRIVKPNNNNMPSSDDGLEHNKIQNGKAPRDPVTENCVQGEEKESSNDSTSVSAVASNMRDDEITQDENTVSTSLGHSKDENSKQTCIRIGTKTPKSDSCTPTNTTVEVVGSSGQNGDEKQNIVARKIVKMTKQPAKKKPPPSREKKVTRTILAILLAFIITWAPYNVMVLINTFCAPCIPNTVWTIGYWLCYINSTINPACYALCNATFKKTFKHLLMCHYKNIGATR

Prothrombin = Prothrombin (Homo sapiens, UniProt P00734); assay type: functional
Histamine H3 receptor = Histamine H3 receptor (Homo sapiens, UniProt Q9Y5N1)
Chain of Histamine H3 receptor (Q9Y5N1 whole entry): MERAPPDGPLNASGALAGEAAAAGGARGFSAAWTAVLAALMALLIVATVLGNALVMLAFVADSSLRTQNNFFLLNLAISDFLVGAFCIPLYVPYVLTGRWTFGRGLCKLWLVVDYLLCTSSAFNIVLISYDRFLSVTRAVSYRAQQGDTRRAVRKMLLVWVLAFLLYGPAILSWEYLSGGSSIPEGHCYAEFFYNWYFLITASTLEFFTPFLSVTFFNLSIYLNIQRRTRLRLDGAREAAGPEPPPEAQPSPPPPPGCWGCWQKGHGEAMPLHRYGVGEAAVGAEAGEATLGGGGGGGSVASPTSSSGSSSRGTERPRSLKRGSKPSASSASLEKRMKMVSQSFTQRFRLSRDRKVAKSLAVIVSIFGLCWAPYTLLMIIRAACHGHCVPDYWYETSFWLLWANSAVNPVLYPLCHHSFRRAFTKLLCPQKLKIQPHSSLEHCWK

[3] = target: T3, 5-hydroxytryptamine receptor 1A (Homo sapiens, UniProt P08908)
T3 sequence (P08908 whole entry): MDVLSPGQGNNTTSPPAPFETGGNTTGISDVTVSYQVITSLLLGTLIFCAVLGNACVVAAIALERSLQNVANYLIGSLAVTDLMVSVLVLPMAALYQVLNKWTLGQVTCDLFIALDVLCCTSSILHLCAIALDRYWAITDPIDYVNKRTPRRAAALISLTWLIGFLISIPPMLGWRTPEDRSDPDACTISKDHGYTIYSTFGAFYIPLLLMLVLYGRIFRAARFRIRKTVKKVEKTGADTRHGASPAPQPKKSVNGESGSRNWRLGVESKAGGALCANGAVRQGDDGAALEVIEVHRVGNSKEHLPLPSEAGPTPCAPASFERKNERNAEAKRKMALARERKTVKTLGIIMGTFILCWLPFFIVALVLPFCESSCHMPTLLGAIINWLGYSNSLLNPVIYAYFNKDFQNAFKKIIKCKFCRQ

[4] = target: 5-hydroxytryptamine receptor 2B (Homo sapiens, UniProt P41595); assay type: functional, cell-based
Chain of 5-hydroxytryptamine receptor 2B (P41595 whole entry): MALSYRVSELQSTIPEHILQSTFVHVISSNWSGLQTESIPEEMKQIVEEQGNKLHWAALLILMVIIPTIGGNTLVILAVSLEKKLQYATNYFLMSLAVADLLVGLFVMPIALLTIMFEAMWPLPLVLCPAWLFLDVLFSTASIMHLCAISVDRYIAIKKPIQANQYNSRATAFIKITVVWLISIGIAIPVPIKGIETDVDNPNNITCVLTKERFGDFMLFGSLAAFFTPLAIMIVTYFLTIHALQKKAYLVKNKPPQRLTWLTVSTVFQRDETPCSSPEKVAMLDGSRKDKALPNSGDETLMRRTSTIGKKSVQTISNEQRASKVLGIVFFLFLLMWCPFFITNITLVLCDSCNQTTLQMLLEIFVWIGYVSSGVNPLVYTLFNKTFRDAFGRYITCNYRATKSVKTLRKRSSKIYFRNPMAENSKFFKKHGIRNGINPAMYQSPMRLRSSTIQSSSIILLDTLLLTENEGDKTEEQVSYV

[5] = target: Voltage-gated inwardly rectifying potassium channel KCNH2 (Homo sapiens, UniProt Q12809); assay type: functional
[6] = target: T4, Amine oxidase [flavin-containing] A (Homo sapiens, UniProt P21397); assay type: functional
T4 sequence (P21397 whole entry): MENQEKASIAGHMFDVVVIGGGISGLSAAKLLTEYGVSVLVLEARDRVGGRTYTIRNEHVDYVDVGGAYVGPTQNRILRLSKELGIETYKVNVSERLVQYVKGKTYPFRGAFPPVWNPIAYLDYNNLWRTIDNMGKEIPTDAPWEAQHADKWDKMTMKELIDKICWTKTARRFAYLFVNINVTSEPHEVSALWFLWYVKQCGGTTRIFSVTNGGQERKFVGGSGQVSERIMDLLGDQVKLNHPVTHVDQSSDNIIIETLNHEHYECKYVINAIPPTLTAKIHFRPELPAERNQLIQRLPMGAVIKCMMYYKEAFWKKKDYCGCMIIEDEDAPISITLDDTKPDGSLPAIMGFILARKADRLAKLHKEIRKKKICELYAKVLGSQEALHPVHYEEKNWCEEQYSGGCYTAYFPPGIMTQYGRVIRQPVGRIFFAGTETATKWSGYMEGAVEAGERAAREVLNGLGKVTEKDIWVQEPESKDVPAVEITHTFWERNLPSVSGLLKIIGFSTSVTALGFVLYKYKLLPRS

[7] = target: cGMP-inhibited 3',5'-cyclic phosphodiesterase 3A (Homo sapiens, UniProt Q14432); assay type: functional
Chain of cGMP-inhibited 3',5'-cyclic phosphodiesterase 3A (Q14432 whole entry): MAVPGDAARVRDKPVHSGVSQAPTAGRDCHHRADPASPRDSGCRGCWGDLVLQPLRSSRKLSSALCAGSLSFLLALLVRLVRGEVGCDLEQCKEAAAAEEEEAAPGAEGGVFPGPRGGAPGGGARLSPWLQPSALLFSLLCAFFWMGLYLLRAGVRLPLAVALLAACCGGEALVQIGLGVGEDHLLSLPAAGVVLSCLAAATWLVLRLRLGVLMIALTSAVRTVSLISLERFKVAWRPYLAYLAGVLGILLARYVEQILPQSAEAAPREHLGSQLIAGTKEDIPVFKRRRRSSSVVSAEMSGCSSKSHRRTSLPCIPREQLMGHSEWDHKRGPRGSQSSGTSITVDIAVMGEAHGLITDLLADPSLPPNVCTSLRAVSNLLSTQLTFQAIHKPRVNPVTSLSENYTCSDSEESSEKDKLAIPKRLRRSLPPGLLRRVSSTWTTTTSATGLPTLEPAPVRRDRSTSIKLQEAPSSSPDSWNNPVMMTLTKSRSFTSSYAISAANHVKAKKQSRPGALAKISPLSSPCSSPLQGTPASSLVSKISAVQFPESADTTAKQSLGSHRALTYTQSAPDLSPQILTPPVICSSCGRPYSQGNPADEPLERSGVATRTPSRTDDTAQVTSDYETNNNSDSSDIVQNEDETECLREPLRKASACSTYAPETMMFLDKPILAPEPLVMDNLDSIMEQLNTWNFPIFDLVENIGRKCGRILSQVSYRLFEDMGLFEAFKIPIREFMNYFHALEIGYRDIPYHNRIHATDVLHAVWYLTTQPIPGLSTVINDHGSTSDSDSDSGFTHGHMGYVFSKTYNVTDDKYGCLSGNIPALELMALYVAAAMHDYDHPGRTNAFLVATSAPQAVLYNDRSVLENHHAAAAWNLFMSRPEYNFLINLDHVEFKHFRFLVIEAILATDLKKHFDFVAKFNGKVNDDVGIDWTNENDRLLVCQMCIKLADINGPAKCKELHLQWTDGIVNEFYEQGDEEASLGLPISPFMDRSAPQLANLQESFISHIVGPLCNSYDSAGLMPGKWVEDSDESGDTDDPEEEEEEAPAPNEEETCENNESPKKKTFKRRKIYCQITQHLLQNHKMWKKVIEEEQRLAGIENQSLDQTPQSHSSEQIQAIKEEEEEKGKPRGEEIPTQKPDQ

[8] = target: 3',5'-cyclic-AMP phosphodiesterase 4A (Homo sapiens, UniProt P27815); assay type: functional
Chain of 3',5'-cyclic-AMP phosphodiesterase 4A (P27815 whole entry): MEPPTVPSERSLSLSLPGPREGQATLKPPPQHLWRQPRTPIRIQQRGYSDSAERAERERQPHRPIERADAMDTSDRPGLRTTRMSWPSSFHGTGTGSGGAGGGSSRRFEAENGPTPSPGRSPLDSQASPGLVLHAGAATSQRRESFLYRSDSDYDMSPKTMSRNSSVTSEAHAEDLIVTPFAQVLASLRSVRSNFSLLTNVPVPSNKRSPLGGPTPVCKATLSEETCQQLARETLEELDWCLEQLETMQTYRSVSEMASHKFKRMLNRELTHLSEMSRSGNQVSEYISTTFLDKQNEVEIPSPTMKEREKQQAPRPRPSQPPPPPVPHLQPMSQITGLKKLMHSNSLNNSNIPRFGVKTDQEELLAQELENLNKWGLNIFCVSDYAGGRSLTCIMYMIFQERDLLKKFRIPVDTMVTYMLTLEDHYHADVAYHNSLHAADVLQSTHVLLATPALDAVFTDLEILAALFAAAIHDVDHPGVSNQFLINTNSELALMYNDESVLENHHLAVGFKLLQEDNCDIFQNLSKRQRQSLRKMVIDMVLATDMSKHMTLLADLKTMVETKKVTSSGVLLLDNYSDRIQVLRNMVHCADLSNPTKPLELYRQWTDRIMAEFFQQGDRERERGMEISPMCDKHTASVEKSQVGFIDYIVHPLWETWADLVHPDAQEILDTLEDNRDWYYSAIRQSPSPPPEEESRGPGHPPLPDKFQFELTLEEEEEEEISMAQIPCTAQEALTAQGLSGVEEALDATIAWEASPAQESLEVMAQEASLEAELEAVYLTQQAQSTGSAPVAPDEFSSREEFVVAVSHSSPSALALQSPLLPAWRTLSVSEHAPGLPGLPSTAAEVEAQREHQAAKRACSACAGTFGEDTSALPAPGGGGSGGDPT

[9] = target: Sodium-dependent dopamine transporter (Homo sapiens, UniProt Q01959)
Chain of Sodium-dependent dopamine transporter (Q01959 whole entry): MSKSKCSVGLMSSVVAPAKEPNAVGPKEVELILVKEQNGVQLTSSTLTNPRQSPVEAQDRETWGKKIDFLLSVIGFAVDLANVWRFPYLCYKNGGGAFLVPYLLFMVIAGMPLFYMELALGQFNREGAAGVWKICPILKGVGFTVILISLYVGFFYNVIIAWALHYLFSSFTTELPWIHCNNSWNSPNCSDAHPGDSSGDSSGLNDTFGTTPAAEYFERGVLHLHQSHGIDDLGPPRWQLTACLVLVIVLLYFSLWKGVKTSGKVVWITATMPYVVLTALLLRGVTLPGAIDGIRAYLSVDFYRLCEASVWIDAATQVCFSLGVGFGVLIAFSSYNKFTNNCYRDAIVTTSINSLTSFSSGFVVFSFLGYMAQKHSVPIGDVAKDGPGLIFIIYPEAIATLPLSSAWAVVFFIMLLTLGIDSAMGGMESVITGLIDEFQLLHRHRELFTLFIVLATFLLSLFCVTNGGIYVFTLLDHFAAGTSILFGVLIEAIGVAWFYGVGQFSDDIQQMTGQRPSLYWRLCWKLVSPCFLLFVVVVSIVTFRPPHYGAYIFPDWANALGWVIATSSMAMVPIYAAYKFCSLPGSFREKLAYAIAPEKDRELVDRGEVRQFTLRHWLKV

Thromboxane A2 receptor [10] = target: T5, Thromboxane A2 receptor (Homo sapiens, UniProt P21731); assay type: functional, cell-based
T5 sequence (P21731 whole entry): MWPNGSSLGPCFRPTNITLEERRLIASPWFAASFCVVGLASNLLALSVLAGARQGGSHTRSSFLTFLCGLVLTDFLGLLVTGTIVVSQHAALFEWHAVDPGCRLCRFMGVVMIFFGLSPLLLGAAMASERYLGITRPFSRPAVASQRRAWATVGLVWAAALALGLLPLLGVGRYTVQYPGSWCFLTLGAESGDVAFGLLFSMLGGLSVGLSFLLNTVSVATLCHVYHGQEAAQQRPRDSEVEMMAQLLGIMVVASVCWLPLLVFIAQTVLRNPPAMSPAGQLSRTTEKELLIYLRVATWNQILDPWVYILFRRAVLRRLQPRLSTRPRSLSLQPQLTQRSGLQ

Thromboxane A2 receptor [11] = target: T5, Thromboxane A2 receptor; assay type: functional, cell-based; remark: listed apart in the source
Note: assay procedure not described here.

Chain of Acetylcholinesterase (P22303 whole entry): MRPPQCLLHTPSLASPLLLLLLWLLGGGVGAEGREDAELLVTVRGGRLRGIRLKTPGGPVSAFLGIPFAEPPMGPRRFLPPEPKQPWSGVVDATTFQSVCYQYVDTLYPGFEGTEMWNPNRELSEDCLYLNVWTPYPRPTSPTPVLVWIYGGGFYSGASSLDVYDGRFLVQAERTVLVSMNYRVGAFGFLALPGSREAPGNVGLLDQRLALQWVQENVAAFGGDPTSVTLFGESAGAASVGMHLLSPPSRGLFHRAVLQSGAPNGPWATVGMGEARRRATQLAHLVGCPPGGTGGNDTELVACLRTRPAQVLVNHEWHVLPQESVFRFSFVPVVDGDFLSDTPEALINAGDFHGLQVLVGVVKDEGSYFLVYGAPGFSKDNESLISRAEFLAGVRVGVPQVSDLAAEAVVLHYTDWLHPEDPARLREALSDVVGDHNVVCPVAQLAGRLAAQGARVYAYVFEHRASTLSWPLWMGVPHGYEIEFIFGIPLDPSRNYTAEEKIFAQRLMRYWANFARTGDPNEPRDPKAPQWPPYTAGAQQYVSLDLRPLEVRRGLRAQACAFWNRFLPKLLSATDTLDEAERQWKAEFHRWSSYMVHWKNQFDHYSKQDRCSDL

In the case of `O=C(O)[C@@H]1C[C@@H](O)CN1`, the AC50 (Acetylcholinesterase) is reported as > 30 µM, the AC50 [1] is reported as > 30 µM and the AC50 [2] is reported as > 30 µM. For the same compound, the AC50 (Prothrombin) was > 30 µM, the AC50 (Histamine H3 receptor) was > 30 µM and the AC50 [3] was > 30 µM. The AC50 [4] was > 30 µM, the AC50 [5] was > 30 µM and the AC50 [6] was > 30 µM. For the same compound, the AC50 [7] was > 30 µM, the AC50 [8] was > 30 µM and the AC50 [9] was > 30 µM. For the same compound, the AC50 (Thromboxane A2 receptor [10]) was > 30 µM and the AC50 (Thromboxane A2 receptor [11]) was > 30 µM.
In the case of `O=C(/C=C/c1cccc(S(=O)(=O)Nc2ccccc2)c1)NO` [BELINOSTAT], the AC50 (Acetylcholinesterase) is reported as > 30 µM, the AC50 [1] is reported as > 30 µM and the AC50 [2] is reported as > 30 µM. For the same compound, the AC50 (Prothrombin) was > 30 µM, the AC50 (Histamine H3 receptor) was > 30 µM and the AC50 [3] was > 30 µM. The AC50 [4] was > 30 µM, the AC50 [6] was > 30 µM and the AC50 [7] was > 30 µM. For the same compound, the AC50 [8] was 23.7 µM, the AC50 [9] was > 30 µM and the AC50 (Thromboxane A2 receptor [10]) was > 30 µM. For the same compound, the AC50 (Thromboxane A2 receptor [11]) was > 30 µM.
`Cc1cn([C@H]2O[C@@H](CO)[C@H](O)[C@H]2F)c(=O)[nH]c1=O` [CLEVUDINE] was tested, and the AC50 (Acetylcholinesterase) was > 30 µM, the AC50 [1] was > 30 µM and the AC50 [2] was > 30 µM. The AC50 (Prothrombin) was > 30 µM, the AC50 (Histamine H3 receptor) was > 30 µM and the AC50 [3] was > 30 µM. For the same compound, the AC50 [4] was > 30 µM, the AC50 [6] was > 30 µM and the AC50 [7] was > 30 µM. The AC50 [8] was > 30 µM, the AC50 [9] was > 30 µM and the AC50 (Thromboxane A2 receptor [10]) was > 30 µM. For the same compound, the AC50 (Thromboxane A2 receptor [11]) was > 30 µM.
With `CC(=O)[C@H]1CC[C@H]2[C@@H]3C=CC4=CC(=O)CC[C@@]4(C)[C@@H]3CC[C@]12C` [DYDROGESTERONE] the AC50 (Acetylcholinesterase) was > 30 µM, the AC50 [1] was > 30 µM and the AC50 [2] was > 30 µM. For the same compound, the AC50 (Prothrombin) was > 30 µM, the AC50 (Histamine H3 receptor) was > 30 µM and the AC50 [3] was > 30 µM. For the same compound, the AC50 [4] was > 30 µM, the AC50 [6] was > 30 µM and the AC50 [7] was > 30 µM. For the same compound, the AC50 [8] was > 30 µM, the AC50 [9] was > 30 µM and the AC50 (Thromboxane A2 receptor [10]) was > 30 µM. For the same compound, the AC50 (Thromboxane A2 receptor [11]) was 25.1 µM.
For `CC(O)(P(=O)(O)O)P(=O)(O)O` [ETIDRONIC ACID], the AC50 (Acetylcholinesterase) was > 30 µM, the AC50 [1] was > 30 µM and the AC50 [2] was > 30 µM. For the same compound, the AC50 (Prothrombin) was > 30 µM, the AC50 (Histamine H3 receptor) was > 30 µM and the AC50 [3] was > 30 µM. The AC50 [4] was > 30 µM, the AC50 [6] was > 30 µM and the AC50 [7] was > 30 µM. For the same compound, the AC50 [8] was > 30 µM, the AC50 [9] was > 30 µM and the AC50 (Thromboxane A2 receptor [10]) was > 30 µM. For the same compound, the AC50 (Thromboxane A2 receptor [11]) was > 30 µM.
`O=C(CCC/C=C\C[C@@H]1[C@@H](CC[C@@H](O)CCc2ccccc2)[C@H](O)C[C@@H]1O)OCCCCO[N+](=O)[O-]` [LATANOPROSTENE BUNOD] was tested, and the AC50 (Acetylcholinesterase) was > 30 µM, the AC50 [1] was > 30 µM and the AC50 [2] was > 30 µM. The AC50 (Prothrombin) was > 30 µM, the AC50 (Histamine H3 receptor) was > 30 µM and the AC50 [3] was > 30 µM. The AC50 [4] was > 30 µM, the AC50 [6] was > 30 µM and the AC50 [7] was > 30 µM. For the same compound, the AC50 [8] was > 30 µM, the AC50 [9] was > 30 µM and the AC50 (Thromboxane A2 receptor [10]) was > 30 µM. For the same compound, the AC50 (Thromboxane A2 receptor [11]) was > 10 µM.
`CCC[C@H](N[C@@H](C)C(=O)N1[C@H](C(=O)O)C[C@@H]2CCCC[C@@H]21)C(=O)OCC` [PERINDOPRIL] was tested, and the AC50 (Acetylcholinesterase) was > 30 µM, the AC50 [1] was > 30 µM and the AC50 [2] was > 30 µM. For the same compound, the AC50 (Prothrombin) was > 30 µM, the AC50 (Histamine H3 receptor) was > 30 µM and the AC50 [3] was > 30 µM. The AC50 [4] was > 30 µM, the AC50 [6] was > 30 µM and the AC50 [7] was > 30 µM. The AC50 [8] was > 30 µM, the AC50 [9] was > 30 µM and the AC50 (Thromboxane A2 receptor [10]) was > 30 µM. For the same compound, the AC50 (Thromboxane A2 receptor [11]) was > 30 µM.
For `COc1cc(C)c2c(Oc3cccc(C(F)(F)F)c3)c(OC)cc(NC(C)CCCN)c2n1` (stereo not drawn) [TAFENOQUINE], the AC50 (Acetylcholinesterase) was > 30 µM, the AC50 [1] was > 30 µM and the AC50 [2] was > 30 µM. The AC50 (Prothrombin) was > 30 µM, the AC50 (Histamine H3 receptor) was > 30 µM and the AC50 [3] was 11.3 µM. The AC50 [4] was > 30 µM, the AC50 [6] was > 30 µM and the AC50 [7] was > 30 µM. For the same compound, the AC50 [8] was > 30 µM, the AC50 [9] was 5.98 µM and the AC50 (Thromboxane A2 receptor [10]) was > 3 µM. The AC50 (Thromboxane A2 receptor [11]) was > 3 µM.
With `COc1ccc2c(C(=S)N(C)CC(=O)O)cccc2c1C(F)(F)F` [TOLRESTAT] the AC50 (Acetylcholinesterase) was > 30 µM, the AC50 [1] was > 30 µM and the AC50 [2] was > 30 µM. The AC50 (Prothrombin) was > 30 µM, the AC50 (Histamine H3 receptor) was > 30 µM and the AC50 [3] was > 30 µM. The AC50 [4] was > 30 µM, the AC50 [6] was > 30 µM and the AC50 [7] was > 30 µM. The AC50 [8] was > 30 µM, the AC50 [9] was > 30 µM and the AC50 (Thromboxane A2 receptor [10]) was > 30 µM. For the same compound, the AC50 (Thromboxane A2 receptor [11]) was > 30 µM.
